Experimental data as given in US8362011B2, “Tricyclic triazolic compounds” (Laboratories del Dr. Esteve, S.A., priority 2007, dated 2013).

Test system: not given
Assay: not given
Conditions: not given

In the case of `c1nnn2c1COC1CNC[C@H]12` (some centres unmarked), the melting point is reported as 217 °C (dec.).
With `Clc1ccc(N2CC3OCc4cnnn4[C@@H]3C2)cc1` (stereo partly drawn) [Example 43, (5a,8a-trans)-7-(4-chlorophenyl)-4,5a,6,7,8,8a-hexahydropyrrolo[3,4-b][1,2,3]triazolo[1,5-d][1,4]oxazine] the melting point was 238 °C (dec.).
With `c1ccc(N2CC3OCc4cnnn4[C@@H]3C2)nc1` (stereo partly drawn) [Example 44, (5a,8a-trans)-7-(pyridin-2-yl)-4,5a,6,7,8,8a-hexahydropyrrolo[3,4-b][1,2,3]triazolo[1,5-d][1,4]oxazine] the melting point was 216 °C (dec.).

Compared with `CCN1CC2OCc3cnnn3[C@@H]2C1` (some centres unmarked), `CS(=O)(=O)N1CC2OCc3cnnn3[C@@H]2C1` (stereo partly drawn) [Example 14, (5a,8a-trans)-7-(methylsulfonyl)-4,5a,6,7,8,8a-hexahydropyrrolo[3,4-b][1,2,3]triazolo[1,5-d][1,4]oxazine] is higher in melting point: 59 to 60 °C for the first, 204 to 206 °C for the second.

Compared with `COc1ccc(CN2CC3OCc4cnnn4[C@@H]3C2)cc1` (stereo partly drawn) [Example 1, (5a,8a-trans)-7-(4-methoxybenzyl)-4,5a,6,7,8,8a-hexahydropyrrolo[3,4-b][1,2,3]triazolo[1,5-d][1,4]oxazine], `c1ccc(N2CC3OCc4cnnn4[C@@H]3C2)cc1` (stereo partly drawn) [Example 42, (5a,8a-trans)-7-phenyl-4,5a,6,7,8,8a-hexahydropyrrolo[3,4-b][1,2,3] triazolo[1,5-d][1,4]oxazine] is higher in melting point: 150 to 151 °C for the first, 222 to 223 °C for the second.

First: O=S(=O)(c1ccc(Br)cc1)N1CC2OCc3cnnn3[C@@H]2C1 (stereo partly drawn) [Example 15, (5a,8a-trans)-7-(4-bromophenylsulfonyl)-4,5a,6,7,8,8a-hexahydro pyrrolo[3,4-b][1,2,3]triazolo[1,5-d][1,4]oxazine]
Second: O=S(=O)(c1ccc(F)cc1)N1CC2OCc3cnnn3[C@@H]2C1 (stereo partly drawn) [Example 18, (5a,8a-trans)-7-(4-fluorophenylsulfonyl)-4,5a,6,7,8,8a-hexahydro pyrrolo[3,4-b][1,2,3]triazolo[1,5-d][1,4]oxazine]
The melting point of the first is higher: 220 to 221 °C for the first, 208 to 209 °C for the second.

Compared with `O=S(=O)(c1ccccc1)N1CC2OCc3cnnn3[C@@H]2C1` (stereo partly drawn) [Example 16, (5a,8a-trans)-7-(phenylsulfonyl)-4,5a,6,7,8,8a-hexahydropyrrolo[3,4-b][1,2,3]triazolo[1,5-d][1,4]oxazine], `O=S(=O)(c1ccccc1F)N1CC2OCc3cnnn3[C@@H]2C1` (stereo partly drawn) [Example 17, (5a,8a-trans)-7-(2-fluorophenylsulfonyl)-4,5a,6,7,8,8a-hexahydro pyrrolo[3,4-b][1,2,3]triazolo[1,5-d][1,4]oxazine] is higher in melting point: 168 to 170 °C for the first, 178 to 180 °C for the second.

Compared with `CS(=O)(=O)N1CC2OCc3c(-c4ccccc4)nnn3[C@@H]2C1` (some centres unmarked) [Example 19, (5a,8a)-7-(methylsulfonyl)-3-phenyl-4,5a,6,7,8,8a-hexahydropyrrolo[3,4-b][1,2,3]triazolo[1,5-d][1,4]oxazine], `O=S(=O)(c1ccc(F)cc1)N1CC2OCc3c(-c4ccccc4)nnn3[C@@H]2C1` (stereo partly drawn) [Example 20, (5a,8a-trans)-7-(4-fluorophenylsulfonyl)-3-phenyl-4,5a,6,7,8,8a-hexa hydropyrrolo[3,4-b][1,2,3]triazolo[1,5-d][1,4]oxazine] is lower in melting point: 293 to 295 °C for the first, 287 to 288 °C for the second.

First: O=C(c1ccccc1F)N1CC2OCc3cnnn3[C@@H]2C1 (stereo partly drawn) [Example 21, (2-fluorophenyl)((5a,8a-trans)-5a,6,8,8a-tetrahydropyrrolo[3,4-b][1,2,3]triazolo[1,5-d][1,4]oxazin-7(4H)-yl)methanone]
Second: O=C(c1ccccc1)N1CC2OCc3cnnn3[C@@H]2C1 (stereo partly drawn) [Example 22, phenyl((5a,8a-trans)-5a,6,8,8a-tetrahydropyrrolo[3,4-b][1,2,3]triazolo[1,5-d][1,4]oxazin-7(4H)-yl)methanone]
The melting point of the first is higher: 188 to 190 °C for the first, 173 to 174 °C for the second.

First: O=C(CCc1ccccc1)N1CC2OCc3cnnn3[C@@H]2C1 (stereo partly drawn) [Example 24, 3-phenyl-1-((5a,8a-trans)-5a,6,8,8a-tetrahydropyrrolo[3,4-b][1,2,3]triazolo[1,5-d][1,4]oxazin-7(4H)-yl)propan-1-one]
Second: O=C(Nc1ccccc1)N1CC2OCc3cnnn3[C@@H]2C1 (stereo partly drawn) [Example 32, (5a,8a-trans)-N-phenyl-5a,6,8,8a-tetrahydropyrrolo[3,4-b][1,2,3] triazolo[1,5-d][1,4]oxazine-7(4H)-carboxamide]
The melting point of the first is lower: 134 to 135 °C for the first, 227 to 228 °C for the second.

Compared with `O=C(c1cccs1)N1CC2OCc3cnnn3[C@@H]2C1` (stereo partly drawn) [Example 26, ((5a,8a-trans)-5a,6,8,8a-tetrahydropyrrolo[3,4-b][1,2,3]triazolo[1,5-d][1,4]oxazin-7(4H)-yl)(thiophen-2-yl)methanone], `O=C(c1cccs1)N1CC2OCc3c(-c4ccccc4)nnn3[C@@H]2C1` (stereo partly drawn) [Example 30, ((5a,8a-trans)-3-phenyl-5a,6,8,8a-tetrahydropyrrolo[3,4-b][1,2,3]triazolo[1,5-d][1,4]oxazin-7(4H)-yl)(thiophen-2-yl)methanone] is higher in melting point: 186 to 188 °C for the first, 248 to 249 °C for the second.

Compared with `O=C(c1ccccc1)N1CC2OCc3c(-c4ccccc4)nnn3[C@@H]2C1` (stereo partly drawn) [Example 27, phenyl((5a,8a-trans)-3-phenyl-5a,6,8,8a-tetrahydropyrrolo[3,4-b][1,2,3]triazolo[1,5-d][1,4]oxazin-7(4H)-yl)methanone], `O=C(Nc1ccccc1)N1CC2OCc3c(-c4ccccc4)nnn3[C@@H]2C1` (stereo partly drawn) [Example 33, (5a,8a-trans)-N,3-diphenyl-5a,6,8,8a-tetrahydropyrrolo[3,4-b][1,2,3] triazolo[1,5-d][1,4]oxazine-7(4H)-carboxamide] is higher in melting point: 237 to 239 °C for the first, 275 to 277 °C for the second.

Compared with `CCCCNC(=O)N1CC2OCc3cnnn3[C@@H]2C1` (stereo partly drawn) [Example 31, (5a,8a-trans)-N-butyl-5a,6,8,8a-tetrahydropyrrolo[3,4-b][1,2,3]triazolo[1,5-d][1,4]oxazine-7(4H)-carboxamide], `CC(C)(C)OC(=O)N1C[C@@H]2OCc3cnnn3[C@H]2C1` [Example 53, (5aS,8aS)-tert-butyl 5a,6,8,8a-tetrahydropyrrolo[3,4-b][1,2,3]triazolo[1,5-d][1,4]oxazine-7(4H)-carboxylate] is lower in melting point: 194 to 195 °C for the first, 155 to 157 °C for the second.

First: O=C(OCc1ccccc1)N1CC2OCc3c(-c4ccccc4)nnn3[C@@H]2C1 (stereo partly drawn) [Example 34, (5a,8a-trans)-benzyl3-phenyl-5a,6,8,8a-tetrahydropyrrolo[3,4-b][1,2,3] triazolo[1,5-d][1,4]oxazine-7(4H)-carboxylate]
Second: c1ccc(-c2nnn3c2COC2CN(c4ccccc4)C[C@H]23)cc1 (stereo partly drawn) [Example 45, (5a,8a-trans)-3,7-diphenyl-4,5a,6,7,8,8a-hexahydropyrrolo[3,4-b][1,2,3] triazolo[1,5-d][1,4]oxazine]
The melting point of the first is lower: 209 to 212 °C for the first, 256 to 257 °C for the second.

`c1cnc(N2CC3OCc4cnnn4[C@@H]3C2)nc1` (stereo partly drawn) [Example 35, (5a,8a-trans)-7-(pyrimidin-2-yl)-4,5a,6,7,8,8a-hexahydropyrrolo[3,4-b][1,2,3]triazolo[1,5-d][1,4]oxazine] and `c1ccc(-c2nnn3c2COC2CN(c4ncccn4)C[C@H]23)cc1` (stereo partly drawn) [Example 40, (5a,8a-trans)-3-phenyl-7-(pyrimidin-2-yl)-4,5a,6,7,8,8a-hexahydro pyrrolo[3,4-b][1,2,3]triazolo[1,5-d][1,4]oxazine] fall in the same range of melting point: 256 to 257 °C for the first, 256 to 257 °C for the second.

Compared with `Cc1nnn2c1CO[C@H]1CN(C(=O)OC(C)(C)C)C[C@@H]12` [Example 54, (5aS,8aS)-tert-butyl 3-methyl-5a,6,8,8a-tetrahydropyrrolo[3,4-b][1,2,3] triazolo[1,5-d][1,4]oxazine-7(4H)-carboxylate], `CC(C)(C)OC(=O)N1C[C@@H]2OCc3c(-c4ccccc4)nnn3[C@H]2C1` [Example 55, (5aS,8aS)-tert-butyl 3-phenyl-5a,6,8,8a-tetrahydropyrrolo[3,4-b][1,2,3] triazolo[1,5-d][1,4]oxazine-7(4H)-carboxylate] is higher in melting point: 195 to 196 °C for the first, 236 to 237 °C for the second.

First: CC(C)(C)OC(=O)N1C[C@@H]2OCc3c(-c4cccc(F)c4)nnn3[C@H]2C1 [Example 56, (5aS,8aS)-tert-butyl 3-(3-fluorophenyl)-5a,6,8,8a-tetrahydropyrrolo[3,4-b][1,2,3]triazolo[1,5-d][1,4]oxazine-7(4H)-carboxylate]
Second: CC(C)(C)OC(=O)N1CC2OCc3c(-c4ccc(C(F)(F)F)cc4)nnn3[C@H]2C1 (stereo partly drawn) [Example 57, (5aS,8aS)-tert-butyl-3-(4-(trifluoromethyl)phenyl)-5a,6,8,8a-tetrahydropyrrolo[3,4-b][1,2,3]triazolo[1,5-c][1,4]oxazine-7(4H)-carboxylate]
The melting point of the first is higher: 249 to 250 °C for the first, 238 to 239 °C for the second.

Biological target: T1, σ1-receptor (Cavia porcellus, UniProt Q60492)
T1 construct: Guinea pig brains were homogenized in 10 vols; (w/v) of Tris-HCl 50 mM 0.32 M sucrose; from tissue; host or cells: guinea pig brain membranes
T1 sequence (Q60492 whole entry): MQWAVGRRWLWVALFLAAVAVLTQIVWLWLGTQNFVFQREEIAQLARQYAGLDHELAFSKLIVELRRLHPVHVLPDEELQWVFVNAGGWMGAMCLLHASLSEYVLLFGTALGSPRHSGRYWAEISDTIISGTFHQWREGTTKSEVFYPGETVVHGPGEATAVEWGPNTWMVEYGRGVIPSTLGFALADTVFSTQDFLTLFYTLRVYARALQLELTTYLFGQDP
Assay: σ1-receptor binding assay, [3H]-(+)-pentazocine, guinea pig brain membranes
Conditions: [3H]-(+)-pentazocine 5.0 nM
Description: Brain membrane preparation and binding assays for the σ1-receptor were performed as described (DeHaven-Hudkins, D. L., L.C. Fleissner, and F. Y. Ford-Rice, 1992, Characterization of the binding of [^3H](+)pentazocine to σ recognition sites in guinea pig brain, Eur. J. Pharmacol. 227, 371-378) with some modifications. Guinea pig brains were homogenized in 10 vols. (w/v) of Tris-HCl 50 mM 0.32 M sucrose, pH 7.4, with a Kinematica Polytron PT 3000 at 15000 r.p.m. for 30 s. The homogenate was centrifuged at 1000 g for 10 min at 4° C. and the supernatants collected and centrifuged again at 48000 g for 15 min at 4° C. The pellet was resuspended in 10 volumes of Tris-HCl buffer (50 mM, pH 7.4), incubated at 37° C. for 30 min, and centrifuged at 48000 g for 20 min at 4° C. Following this, the pellet was re-suspended in fresh Tris-HCl buffer (50 mM, pH 7.4) and stored on ice until use.
The radioligand used was [^3H]-(+)-pentazocine at 5.0 nM and the final volume was 200 μl. The incubation was initiated with the addition of 100 μA of membrane at a final tissue concentration of approximately 5 mg tissue net weight/mL and the incubation time was 150 m. at 37° C. After incubation, the membranes were collected onto pretreated glass fiber filterplate (MultiScreen-FC, Millipore), with polyethylenimine 0.1%. The filters were washed two times with 200 μA of washing buffer (50 mM Tris Cl, pH=7.4) and then 25 μA of Ecoscint H liquid scintillation cocktail were added. Microplates were allowed to set for several hours and then quantified by liquid scintillation spectrophotometry (1450 Microbeta, Wallac). Nonspecific binding was determined with 1 μM haloperidol.

With `COc1ccc(CN2C[C@@H]3[C@@H](C2)OCc2c(C)nnn23)cc1` (relative stereo) [Example 2, (5a,8a-trans)-7-(4-methoxybenzyl)-3-methyl-4,5a,6,7,8,8a-hexahydro pyrrolo[3,4-b][1,2,3]triazolo[1,5-d][1,4]oxazine] the Ki was > 1 µM.
